Patent US20240254118A1, “PRMT5 INHIBITORS AND USES THEREOF” (Gilead Sciences, Inc., priority 2022, published 2024)

How the values were obtained:
[1] = test system: SDMA signal (PRMT5 inhibition) in HCT116 MTAP-deleted cells; test: Symmetric di-methyl arginine image-based high content screen assay (SDMA assay), HCT116 MTAP-deleted; assay type: cell-based; conditions: SDMA assay; for EC50: Homo sapiens, HCT-116, 72 h, 3 days of treatment, cell line not given, taken as HCT116 MTAP-deleted, read-out: EC50 (SDMA assay)
Outline: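 HCT116 MTAP-deleted cells treated with compound until Day 3, then formalin-fixed, permeabilized and immunostained for SDMA, with DAPI nuclear counterstain. Imaged by high-content microscopy; SDMA read-out is mean Alexa 488 intensity per DAPI-defined cell, reflecting PRMT5 inhibition.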

[2] = test system: HCT116 MTAP-deleted cells; test: Cell viability assay (CellTiter-Glo, 7 days), HCT116 MTAP-deleted; conditions: Homo sapiens, HCT-116, 168 h
[3] = taken as HCT116 WT versus MTAP-deleted
[4] = taken as HCT116 WT vs MTAP-deleted

Row | Structure (SMILES) | EC50 [1] [nM] | EC50 selectivity (SDMA assay) [1, 3] | CC50 [2] [nM] | EC50 selectivity (SDMA assay) [1, 4]
1 | COc1ccc(CN(C(=O)c2ccc3nc(N)c4cnn(C)c4c3c2)N(C)C(C)=O)c(F)c1 [Example 16, N′-acetyl-4-amino-N-(2-fluoro-4-methoxybenzyl)-N′,1-dimethyl-1H-pyrazolo[4,3-c]quinoline-8-carbohydrazide] | < 1 | 306 | < 100 | 
2 | CN(C(=O)C12CC(F)(C1)C2)N(Cc1ccc(C(F)(F)F)cn1)C(=O)c1ccc2nc(N)c3cnn(C)c3c2c1 [Example 102, 4-amino-N′-(3-fluorobicyclo[1.1.1]pentane-1-carbonyl)-N′,1-dimethyl-N-[[5-(trifluoromethyl)-2-pyridyl]methyl]pyrazolo[4,3-c]quinoline-8-carbohydrazide] | 1 to 5 | 252 | < 100 | 
3 | CC(=O)N(C)N(Cc1ccc2nc(C)oc2c1)C(=O)c1ccc2nc(N)c3cnn(C)c3c2c1 [Example 335, N′-acetyl-4-amino-N′,1-dimethyl-N-((2-methylbenzo[d]oxazol-6-yl)methyl)-1H-pyrazolo[4,3-c]quinoline-8-carbohydrazide] | 1 to 5 | 272 | < 100 | 
4 | Cn1ncc2c(N)nc3ccc(C(=O)N(Cc4ccc(C(F)(F)F)cn4)N4CC5(CC5)CC4=O)cc3c21 [Example 170, 4-amino-1-methyl-N-(6-oxo-5-azaspiro[2.4]heptan-5-yl)-N-((5-(trifluoromethyl)pyridin-2-yl)methyl)-1H-pyrazolo[4,3-c]quinoline-8-carboxamide] | < 1 | 146 | < 100 | 
5 | Cn1ncc2c(N)nc3cc(F)c(C(=O)N(Cc4ccc(C(F)(F)F)cn4)n4ccc5cccnc54)cc3c21 [Example 296, 4-amino-7-fluoro-1-methyl-N-(1H-pyrrolo[2,3-b]pyridin-1-yl)-N-((5-(trifluoromethyl)pyridin-2-yl)methyl)-1H-pyrazolo[4,3-c]quinoline-8-carboxamide] | < 1 | 27 | < 100 | 
6 | CCC(=O)N(C)N(Cc1ncc(C(F)(F)F)cc1Cl)C(=O)c1ccc2nc(N)c3cnn(C)c3c2c1 [Example 454, 4-amino-N-((3-chloro-5-(trifluoromethyl)pyridin-2-yl)methyl)-N′,1-dimethyl-N′-propionyl-1H-pyrazolo[4,3-c]quinoline-8-carbohydrazide] | 1 to 5 |  | < 100 | 421
7 | Cn1ncc2c3cc(C(=O)N(Cc4ccc(C(F)(F)F)cn4)N4CCCC4=O)ccc3nc(N)c21 [Example 151, 4-amino-3-methyl-N-(2-oxopyrrolidin-1-yl)-N-((5-(trifluoromethyl)pyridin-2-yl)methyl)-3H-pyrazolo[3,4-c]quinoline-8-carboxamide] | < 1 | 525 | < 100 | 
8 | CN(C(=O)c1nccn1C)N(Cc1ccc(C(F)(F)F)cn1)C(=O)c1ccc2nc(N)c3cnn(C)c3c2c1 [Example 158, 4-amino-N′,1-dimethyl-N′-(1-methyl-1H-imidazole-2-carbonyl)-N-((5-(trifluoromethyl)pyridin-2-yl)methyl)-1H-pyrazolo[4,3-c]quinoline-8-carbohydrazide] | < 1 | 4 | < 100 | 
9 | CN(C(=O)C12CC(C1)C2)N(Cc1ccc(C(F)(F)F)nn1)C(=O)c1cc2c(cc1F)nc(N)c1cnn(C)c12 [Example 246, 4-amino-N′-(bicyclo[1.1.1]pentane-1-carbonyl)-7-fluoro-N′, 1-dimethyl-N-((6-(trifluoromethyl)pyridazin-3-yl)methyl)-1H-pyrazolo[4,3-c]quinoline-8-carbohydrazide] | 1 to 5 | 288 | 100 to 1000 | 
10 | CN(Cc1ccccn1)N(Cc1ccc(C(F)(F)F)cn1)C(=O)c1cc2c(cc1F)nc(N)c1cnn(C)c12 [Example 449, 4-amino-7-fluoro-N′,1-dimethyl-N′-(pyridin-2-ylmethyl)-N-((5-(trifluoromethyl)pyridin-2-yl)methyl)-1H-pyrazolo[4,3-c]quinoline-8-carbohydrazide] | 1 to 5 |  | < 100 | 62
11 | Cn1ncc2c(N)nc3ccc(C(=O)N(Cc4ccc(C(F)(F)F)cn4)N4CCC5(CC5)C4=O)cc3c21 [Example 159, 4-amino-1-methyl-N-(4-oxo-5-azaspiro[2.4]heptan-5-yl)-N-((5-(trifluoromethyl)pyridin-2-yl)methyl)-1H-pyrazolo[4,3-c]quinoline-8-carboxamide] | < 1 | 69 | < 100 | 
12 | Cn1ncc2c(N)nc3ccc(C(=O)N(Cc4cn5cc(C#N)ccc5n4)N4CCCC4=O)cc3c21 [Example 88, 4-Amino-N-[(6-cyanoimidazo[1,2-a]pyridin-2-yl)methyl]-1-methyl-N-(2-oxopyrrolidin-1-yl)pyrazolo[4,3-c]quinoline-8-carboxamide] | > 5 | 221 | 100 to 1000 | 
13 | Cn1ncc2c(N)nc3ccc(C(=O)N(Cc4nc5ccccc5s4)N4CCC(F)(F)C4=O)cc3c21 [Example 169, 4-amino-N-(1,3-benzothiazol-2-ylmethyl)-N-(3,3-difluoro-2-oxo-pyrrolidin-1-yl)-1-methyl-pyrazolo[4,3-c]quinoline-8-carboxamide] | 1 to 5 | 14 | < 100 | 
14 | C[C@@H]1CN(N(Cc2ccc(C(F)(F)F)cn2)C(=O)c2ccc3nc(N)c4cnn(C)c4c3c2)C(=O)O1 (single isomer, unassigned) [Example 9] | < 1 | 180 | < 100 | 
15 | CC(=O)N(C)N(Cc1ccc(C#CC(C)(C)S(C)(=O)=O)cc1F)C(=O)c1ccc2nc(N)c3cnn(C)c3c2c1 [Example 176, N′-acetyl-4-amino-N-(2-fluoro-4-(3-methyl-3-(methylsulfonyl)but-1-yn-1-yl)benzyl)-N′,1-dimethyl-1H-pyrazolo[4,3-c]quinoline-8-carbohydrazide] | 1 to 5 | 35 | 100 to 1000 | 
16 | Cn1ncc2c(N)nc3ccc(C(=O)N(Cc4cc5ccccn5n4)N4CCCCC4=O)cc3c21 [Example 94, 4-amino-1-methyl-N-(2-oxo-1-piperidyl)-N-(pyrazolo[1,5-a]pyridin-2-ylmethyl)pyrazolo[4,3-c]quinoline-8-carboxamide] | < 1 | 133 | < 100 | 
17 | CN(CC1CCC1)N(Cc1ccc(C(F)(F)F)cn1)C(=O)c1ccc2nc(N)c3cnn(C)c3c2c1 [Example 172, 4-amino-N′-(cyclobutylmethyl)-N′,1-dimethyl-N-[[5-(trifluoromethyl)-2-pyridyl]methyl]pyrazolo[4,3-c]quinoline-8-carbohydrazide] | 1 to 5 | 153 | < 100 | 
18 | C[C@H]1CN(N(Cc2ccc(C(F)(F)F)cn2)C(=O)c2ccc3nc(N)c4cnn(C)c4c3c2)C(=O)O1 (single isomer, unassigned) [Example 8] | < 1 | 137 | < 100 | 
19 | COc1nc(C(F)(F)F)ccc1CN(C(=O)c1ccc2nc(N)c3cnn(C)c3c2c1)N(C)C(C)=O [Example 18, N′-acetyl-4-amino-N-[[2-methoxy-6-(trifluoromethyl)-3-pyridyl]methyl]-N′, 1-dimethyl-pyrazolo[4,3-c]quinoline-8-carbohydrazide] | < 1 | 61 | < 100 | 
20 | CN(C(=O)C1(C(F)(F)F)CC1)N(Cc1ccc(C(F)(F)F)cn1)C(=O)c1ccc2nc(N)c3cnn(C)c3c2c1 [Example 52, 4-amino-N′, 1-dimethyl-N′-[1-(trifluoromethyl)cyclopropanecarbonyl]-N-[[5-(trifluoromethyl)-2-pyridyl]methyl]pyrazolo[4,3-c]quinoline-8-carbohydrazide] | 1 to 5 | 174 | 100 to 1000 | 
21 | Cn1ncc2c(N)nc3ccc(C(=O)N(Cc4nc5ccc(F)cc5s4)N4CCCC4=O)cc3c21 [Example 85, 4-Amino-N-[(6-fluoro-1,3-benzothiazol-2-yl)methyl]-1-methyl-N-(2-oxopyrrolidin-1-yl)pyrazolo[4,3-c]quinoline-8-carboxamide] | < 1 | 48 | < 100 | 
22 | CC(=O)N(C)N(Cc1nc2cc(C(F)(F)F)ccc2s1)C(=O)c1cc2c(cc1Cl)nc(N)c1cnn(C)c12 [Example 87, N′-Acetyl-4-amino-7-chloro-N′,1-dimethyl-N-[[5-(trifluoromethyl)-1,3-benzothiazol-2-yl]methyl]pyrazolo[4,3-c]quinoline-8-carbohydrazide] | 1 to 5 | 104 | 100 to 1000 | 
23 | [2H]C([2H])(c1ccc(C(F)(F)F)cc1F)N(C(=O)c1ccc2nc(N)c3cnn(C)c3c2c1)N(C)C(=O)C1CC1 [Example 263, 4-amino-N′-(cyclopropanecarbonyl)-N-((2-fluoro-4-(trifluoromethyl)phenyl)methyl-d2)-N′,1-dimethyl-1H-pyrazolo[4,3-c]quinoline-8-carbohydrazide] | < 1 | 46 | < 100 | 
24 | Cn1ncc2c(N)nc3ccc(C(=O)N(Cc4ccc(C(F)(F)F)cn4)N4CCC5(CC5)OC4=O)cc3c21 [Example 336, 4-amino-1-methyl-N-(5-oxo-4-oxa-6-azaspiro[2.5]octan-6-yl)-N-((5-(trifluoromethyl)pyridin-2-yl)methyl)-1H-pyrazolo[4,3-c]quinoline-8-carboxamide] | 1 to 5 | 94 | < 100 | 
